According to patent US8592407B2, “Pyrrolo[2,1-c][1,4] benzodiazepine derivatives with dithiocarbamate side chains and process for the preparation thereof” (Council of Scientific & Industrial Research, priority 2008, dated 2013):

Experiments:
Colon panel = assay: NCI screen, panel average; type: cell-based, human; details: for Log10 GI50 (concentration in mol/L): Colon, average of six to eight cell lines; for LC50: Homo sapiens, read-out: Log10 LC50 (concentration in mol/L causing 50% lethality) (converted)
SR = assay: NCI in vitro cytotoxicity (SRB); type: cell-based; details: Homo sapiens
M14 = assay: NCI in vitro cytotoxicity (SRB); type: cell-based; details: Homo sapiens; Melanoma M14; 48 h exposure
HL-60(TB) = assay: NCI in vitro cytotoxicity (SRB); type: cell-based; details: Homo sapiens; Leukemia HL-60(TB); 48 h exposure
HS 578T = assay: NCI in vitro cytotoxicity (SRB); type: cell-based; details: Homo sapiens; Breast HS 578T; 48 h exposure
NCI-H522 = assay: NCI in vitro cytotoxicity (SRB); type: cell-based; details: Homo sapiens
HOP-92 = assay: NCI in vitro cytotoxicity (SRB); type: cell-based; details: Homo sapiens; Non-smallcell lung HOP-92; 48 h exposure
KM12 = assay: NCI in vitro cytotoxicity (SRB); type: cell-based; details: Homo sapiens; Colon KM12; 48 h exposure
SN12C = assay: NCI in vitro cytotoxicity (SRB); type: cell-based; details: Homo sapiens; Renal SN12C; 48 h exposure
SNB-75 = assay: NCI in vitro cytotoxicity (SRB); type: cell-based; details: Homo sapiens; CNS SNB-75; 48 h exposure
MDA-MB-435 = assay: NCI in vitro cytotoxicity (SRB); type: cell-based; details: Homo sapiens; Breast MDA-MB-435; 48 h exposure
OVCAR-8 = assay: NCI in vitro cytotoxicity (SRB); type: cell-based; details: Homo sapiens
Leukemia panel = assay: NCI screen, panel average; type: cell-based, human; details: for LC50 (50% lethal concentration): Homo sapiens, read-out: Log10 LC50 (concentration in mol/L causing 50% lethality) (converted); for Log10 GI50 (concentration in mol/L): Leukemia, average of six to eight cell lines
BT-549 = assay: NCI in vitro cytotoxicity (SRB); type: cell-based; details: Homo sapiens; Breast BT-549; 48 h exposure
HT29 = assay: NCI in vitro cytotoxicity (SRB); type: cell-based; details: Homo sapiens, HT-29; Colon HT29; 48 h exposure
MALME-3M = assay: NCI in vitro cytotoxicity (SRB); type: cell-based; details: Homo sapiens
LOX IMVI = assay: NCI in vitro cytotoxicity (SRB); type: cell-based; details: Homo sapiens
Prostate panel = assay: NCI screen, panel average; type: cell-based, human; details: for CC50: Homo sapiens, read-out: Log10 LC50 (concentration in mol/L causing 50% lethality) (converted); for Log10 GI50 (concentration in mol/L): Prostate, average of six to eight cell lines
NCI-H23 = assay: NCI in vitro cytotoxicity (SRB); type: cell-based; details: Homo sapiens; Non-smallcell lung NCI-H23; 48 h exposure
CAKI-1 = assay: NCI in vitro cytotoxicity (SRB); type: cell-based; details: Homo sapiens; Renal CAKI-1; 48 h exposure
PC-3 = assay: NCI in vitro cytotoxicity (SRB); type: cell-based; details: Homo sapiens; Prostate PC-3; 48 h exposure
SF-539 = assay: NCI in vitro cytotoxicity (SRB); type: cell-based; details: Homo sapiens; CNS SF-539; 48 h exposure
NCI-H460 = assay: NCI in vitro cytotoxicity (SRB); type: cell-based; details: Homo sapiens; Non-smallcell lung NCI-H460; 48 h exposure
HCT-15 = assay: NCI in vitro cytotoxicity (SRB); type: cell-based; details: Homo sapiens; Colon HCT-15; 48 h exposure
SK-OV-3 = assay: NCI in vitro cytotoxicity (SRB); type: cell-based; details: Homo sapiens; Ovarian SK-OV-3; 48 h exposure
HCT-116 = assay: NCI in vitro cytotoxicity (SRB); type: cell-based; details: Homo sapiens
CNS panel = assay: NCI screen, panel average; type: cell-based, human; details: for Log10 GI50 (concentration in mol/L): CNS, average of six to eight cell lines; for LC50: Homo sapiens, read-out: Log10 LC50 (concentration in mol/L causing 50% lethality) (converted)
SK-MEL-2 = assay: NCI in vitro cytotoxicity (SRB); type: cell-based; details: Homo sapiens; Melanoma SK-MEL-2; 48 h exposure
A549/ATCC = assay: NCI in vitro cytotoxicity (SRB); type: cell-based; details: Homo sapiens; Non-smallcell lung A549/ATCC; 48 h exposure
UACC-257 = assay: NCI in vitro cytotoxicity (SRB); type: cell-based; details: Homo sapiens; Melanoma UACC-257; 48 h exposure
NCI-H226 = assay: NCI in vitro cytotoxicity (SRB); type: cell-based; details: Homo sapiens; Non-smallcell lung NCI-H226; 48 h exposure
CCRF-CEM = assay: NCI in vitro cytotoxicity (SRB); type: cell-based; details: Homo sapiens; Leukemia CCRF-CEM; 48 h exposure
RXF 393 = assay: NCI in vitro cytotoxicity (SRB); type: cell-based; details: Homo sapiens; Renal RXF 393; 48 h exposure
SNB-19 = assay: NCI in vitro cytotoxicity (SRB); type: cell-based; details: Homo sapiens; CNS SNB-19; 48 h exposure
IGROV1 = assay: NCI in vitro cytotoxicity (SRB); type: cell-based; details: Homo sapiens, IGROV-1
RPMI-8226 = assay: NCI in vitro cytotoxicity (SRB); type: cell-based; details: Homo sapiens; Leukemia RPMI-8226; 48 h exposure
MCF7 = assay: NCI in vitro cytotoxicity (SRB); type: cell-based; details: Homo sapiens
OVCAR-4 = assay: NCI in vitro cytotoxicity (SRB); type: cell-based; details: Homo sapiens; Ovarian OVCAR-4; 48 h exposure
OVCAR-5 = assay: NCI in vitro cytotoxicity (SRB); type: cell-based; details: Homo sapiens; Ovarian OVCAR-5; 48 h exposure
[1] = Non-smallcell lung NCI-H522, 48 h exposure
[2] = Melanoma MALME-3M, 48 h exposure
[3] = Melanoma LOX IMVI, 48 h exposure

SMILES: COc1cc2c(cc1OCCCN1CCN(C(=S)SCCC(C#N)(c3ccccc3)c3ccccc3)CC1)N=C[C@@H]1CCCN1C2=O [Compound 12b, 3-cyano-3,3-diphenylpropyl 4-(3-[(11aS)-7-(methyloxy)-5-oxo-2,3,5,11a-tetrahydro-1H-benzo[e]pyrrolo[1,2-a][1,4]diazepin-8-yl]oxypropyl)hexahydro-1-pyrazinecarbodithioate]
- Log10 GI50 (concentration in mol/L) (Colon panel): −6.02 mol/L
- LC50 (Colon panel): 8510 nM
- GI50 (SR; Leukemia SR, 48 h exposure): 180 nM
- GI50 (SR; leukemia SR): 180 nM
- GI50 (M14): 1170 nM
- GI50 (HL-60(TB)): 250 nM
- GI50 (HS 578T): 560 nM
- GI50 (NCI-H522; [1]): 170 nM
- GI50 (NCI-H522; non-small cell lung NCI-H522): 170 nM
- GI50 (HOP-92): 1070 nM
- GI50 (KM12): 1070 nM
- GI50 (SN12C): 640 nM
- GI50 (SNB-75): 1260 nM
- GI50 (MDA-MB-435): 550 nM
- GI50 (OVCAR-8; Ovarian OVCAR-8, 48 h exposure): 990 nM
- GI50 (OVCAR-8; ovarian OVCAR-8): 990 nM
- LC50 (50% lethal concentration) (Leukemia panel): 55000 nM
- Log10 GI50 (concentration in mol/L) (Leukemia panel): −6.63 mol/L
- GI50 (BT-549): 920 nM
- GI50 (HT29): 870 nM
- GI50 (MALME-3M; [2]): 930 nM
- GI50 (MALME-3M; melanoma MALME-3M): 930 nM
- GI50 (LOX IMVI; [3]): 600 nM
- GI50 (LOX IMVI; melanoma LOX IMVI): 600 nM
- CC50 (Prostate panel): 2400 nM
- Log10 GI50 (concentration in mol/L) (Prostate panel): −6.51 mol/L
- GI50 (NCI-H23): 1400 nM
- GI50 (CAKI-1): 300 nM
- GI50 (PC-3): 340 nM
- GI50 (SF-539): 1440 nM
- GI50 (NCI-H460): 770 nM
- GI50 (HCT-15): 1810 nM
- GI50 (SK-OV-3): 2690 nM
- GI50 (HCT-116; Colon HCT-116, 48 h exposure): 380 nM
- GI50 (HCT-116; colon cancer HCT-116): 380 nM
- Log10 GI50 (concentration in mol/L) (CNS panel): −6.12 mol/L
- LC50 (CNS panel): 4470 nM
- GI50 (SK-MEL-2): 1160 nM
- GI50 (A549/ATCC): 1220 nM
- GI50 (UACC-257): 2000 nM
- GI50 (NCI-H226): 1510 nM
- GI50 (CCRF-CEM): 230 nM
- GI50 (RXF 393): 190 nM
- GI50 (SNB-19): 1230 nM
- GI50 (IGROV1; Ovarian IGROV1, 48 h exposure): 300 nM
- GI50 (IGROV1; ovarian IGROV1): 300 nM
- GI50 (RPMI-8226): 220 nM
- GI50 (MCF7; MCF7, breast MCF-7): 330 nM
- GI50 (MCF7; Breast MCF7, 48 h exposure): 330 nM
- GI50 (OVCAR-4): 2110 nM
- GI50 (OVCAR-5): 1350 nM

SMILES: COc1cc2c(cc1OCCCCN1CCN(C(=S)SCCC(C#N)(c3ccccc3)c3ccccc3)CC1)N=C[C@@H]1CCCN1C2=O [Compound 12c, 3-cyano-3,3-diphenylpropyl 4-(4-[(11aS)-7-(methyloxy)-5-oxo-2,3,5,11a-tetrahydro-1H-benzo[e]pyrrolo[1,2-a][1,4]diazepin-8-yl]oxybutyl)hexahydro-1-pyrazinecarbodithioate]
- Log10 GI50 (concentration in mol/L) (Colon panel): −5.93 mol/L
- LC50 (Colon panel): 72400 nM
- GI50 (SR; Leukemia SR, 48 h exposure): 250 nM
- GI50 (M14): 1250 nM
- GI50 (HL-60(TB)): 320 nM
- GI50 (HS 578T): 720 nM
- GI50 (NCI-H522; [1]): 190 nM
- GI50 (HOP-92): 1070 nM
- GI50 (KM12): 1390 nM
- GI50 (SN12C): 1160 nM
- GI50 (SNB-75): 1640 nM
- GI50 (MDA-MB-435): 1040 nM
- GI50 (OVCAR-8; Ovarian OVCAR-8, 48 h exposure): 1590 nM
- LC50 (50% lethal concentration) (Leukemia panel): 100000 nM
- Log10 GI50 (concentration in mol/L) (Leukemia panel): −6.26 mol/L
- GI50 (BT-549): 1420 nM
- GI50 (HT29): 1130 nM
- GI50 (MALME-3M; [2]): 1360 nM
- GI50 (LOX IMVI; [3]): 690 nM
- CC50 (Prostate panel): 7240 nM
- Log10 GI50 (concentration in mol/L) (Prostate panel): −5.99 mol/L
- GI50 (NCI-H23): 1680 nM
- GI50 (CAKI-1): 590 nM
- GI50 (PC-3): 690 nM
- GI50 (SF-539): 1690 nM
- GI50 (NCI-H460): 1250 nM
- GI50 (HCT-15): 1410 nM
- GI50 (SK-OV-3): 2960 nM
- GI50 (HCT-116; Colon HCT-116, 48 h exposure): 540 nM
- Log10 GI50 (concentration in mol/L) (CNS panel): −5.84 mol/L
- LC50 (CNS panel): 7590 nM
- GI50 (SK-MEL-2): 1040 nM
- GI50 (A549/ATCC): 1610 nM
- GI50 (UACC-257): 1970 nM
- GI50 (NCI-H226): 1260 nM
- GI50 (CCRF-CEM): 530 nM
- GI50 (RXF 393): 410 nM
- GI50 (SNB-19): 1670 nM
- GI50 (IGROV1; Ovarian IGROV1, 48 h exposure): 420 nM
- GI50 (RPMI-8226): 490 nM
- GI50 (MCF7; Breast MCF7, 48 h exposure): 430 nM
- GI50 (OVCAR-4): 1820 nM
- GI50 (OVCAR-5): 2470 nM
